Data on 19 molecules can be found in ChEMBL document CHEMBL4346675, “Multi-target compounds acting in cancer progression: Focus on thiosemicarbazone, thiazole and thiazolidinone analogues” (Eur J Med Chem, 2019).

The structures appear in SMILES notation.

What is called IC50 is the concentration needed to halve the response being measured. As usually defined, the Ki is a dissociation constant, usually derived from enzyme kinetics or from competition with a known ligand. As usually defined, the inhibition is the relative decrease from the control value, in per cent. As usually defined, the CC50 is the concentration that lowers cell viability or growth by half.

The subject of experiment [1] is MIA PaCa-2. The experiment can be described thus: Cytotoxicity against human MIAPaCa2 cells incubated for 24 hrs by MTT assay. As to conditions: MIA PaCa-2, 24 h. In kind it is functional, cell-based. Background: Formazan colour is commonly taken as a measure of viable cells.
The test system of experiment [2] is PANC-1. The experiment is described as follows: Cytotoxicity against human PANC1 cells incubated for 24 hrs by MTT assay. It counts as functional, cell-based. The conditions noted are these: PANC-1, 24 h.
Experiment [3] concerns Capan-2. The experiment is described as follows: Cytotoxicity against human Capan2 cells incubated for 24 hrs by MTT assay. It counts as functional, cell-based. The conditions noted are these: Capan-2, 24 h.
In experiment [4] the test system is CFPAC-1. The experiment can be described thus: Cytotoxicity against human CFPAC-1 cells incubated for 24 hrs by MTT assay. As to conditions: CFPAC-1, 24 h. In kind it is functional, cell-based.
Experiment [5] has as its target Histone deacetylase 1 (Homo sapiens, UniProt Q13547). The experiment is described as follows: Inhibition of HDAC1 (unknown origin) using Ac-peptide as substrate pretreated for 15 mins followed by substrate addition and measured after 60 mins by fluorescence assay.
Experiment [6] concerns the target Hepatocyte growth factor activator serine protease (Homo sapiens, UniProt Q04756). The experiment is described as follows: Inhibition of recombinant HGFA serine protease domain (unknown origin) preincubated for 30 mins followed by Boc-QLR-AMC substrate addition by fluorescence assay.
Experiment [7] concerns the target Suppressor of tumorigenicity 14 protein (Homo sapiens, UniProt Q9Y5Y6). The experiment is described as follows: Inhibition of recombinant human matriptase preincubated for 30 mins followed by Boc-QLR-AMC substrate addition by fluorescence assay.
Experiment [8] concerns the target Serine protease hepsin (Homo sapiens, UniProt P05981). The experiment can be described thus: Inhibition of recombinant human hepsin preincubated for 30 mins followed by Boc-QLR-AMC substrate addition by fluorescence assay.
Experiment [9] deals with Prothrombin (Homo sapiens, UniProt P00734). The experiment can be described thus: Inhibition of recombinant thrombin (unknown origin) preincubated for 30 mins followed by chromogenic substrate addition by fluorescence assay.
Experiment [10] deals with Coagulation factor X (Homo sapiens, UniProt P00742). The experiment is described as follows: Inhibition of recombinant factor 10a (unknown origin) preincubated for 30 mins followed by chromogenic substrate addition by fluorescence assay.
Chain of Coagulation factor X (P00742 41-179 limits assumed): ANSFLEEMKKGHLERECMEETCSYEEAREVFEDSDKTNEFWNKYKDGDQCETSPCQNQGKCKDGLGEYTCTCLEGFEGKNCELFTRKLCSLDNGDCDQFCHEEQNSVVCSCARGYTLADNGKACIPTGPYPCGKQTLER
Chain of Coagulation factor X (P00742 235-488 limits assumed): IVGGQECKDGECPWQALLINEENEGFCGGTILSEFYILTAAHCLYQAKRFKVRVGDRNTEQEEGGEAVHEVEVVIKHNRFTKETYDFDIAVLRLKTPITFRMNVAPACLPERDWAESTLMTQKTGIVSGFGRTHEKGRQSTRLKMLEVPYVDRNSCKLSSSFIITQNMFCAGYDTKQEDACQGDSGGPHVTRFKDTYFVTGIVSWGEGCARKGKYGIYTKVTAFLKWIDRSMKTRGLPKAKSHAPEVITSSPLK
For experiment [11], the system named is HepG2. The experiment can be described thus: Cytotoxicity against human HepG2 cells incubated for 48 hrs by MTT assay. In kind it is functional, cell-based. As to conditions: HepG2, 48 h.
For experiment [12], the target named is Epidermal growth factor receptor (Homo sapiens) (UniProt P00533). The experiment is described as follows: Inhibition of EGFR (unknown origin) at 10 uM by immunoassay relative to control.
Chain of Epidermal growth factor receptor (Homo sapiens) (P00533 whole entry): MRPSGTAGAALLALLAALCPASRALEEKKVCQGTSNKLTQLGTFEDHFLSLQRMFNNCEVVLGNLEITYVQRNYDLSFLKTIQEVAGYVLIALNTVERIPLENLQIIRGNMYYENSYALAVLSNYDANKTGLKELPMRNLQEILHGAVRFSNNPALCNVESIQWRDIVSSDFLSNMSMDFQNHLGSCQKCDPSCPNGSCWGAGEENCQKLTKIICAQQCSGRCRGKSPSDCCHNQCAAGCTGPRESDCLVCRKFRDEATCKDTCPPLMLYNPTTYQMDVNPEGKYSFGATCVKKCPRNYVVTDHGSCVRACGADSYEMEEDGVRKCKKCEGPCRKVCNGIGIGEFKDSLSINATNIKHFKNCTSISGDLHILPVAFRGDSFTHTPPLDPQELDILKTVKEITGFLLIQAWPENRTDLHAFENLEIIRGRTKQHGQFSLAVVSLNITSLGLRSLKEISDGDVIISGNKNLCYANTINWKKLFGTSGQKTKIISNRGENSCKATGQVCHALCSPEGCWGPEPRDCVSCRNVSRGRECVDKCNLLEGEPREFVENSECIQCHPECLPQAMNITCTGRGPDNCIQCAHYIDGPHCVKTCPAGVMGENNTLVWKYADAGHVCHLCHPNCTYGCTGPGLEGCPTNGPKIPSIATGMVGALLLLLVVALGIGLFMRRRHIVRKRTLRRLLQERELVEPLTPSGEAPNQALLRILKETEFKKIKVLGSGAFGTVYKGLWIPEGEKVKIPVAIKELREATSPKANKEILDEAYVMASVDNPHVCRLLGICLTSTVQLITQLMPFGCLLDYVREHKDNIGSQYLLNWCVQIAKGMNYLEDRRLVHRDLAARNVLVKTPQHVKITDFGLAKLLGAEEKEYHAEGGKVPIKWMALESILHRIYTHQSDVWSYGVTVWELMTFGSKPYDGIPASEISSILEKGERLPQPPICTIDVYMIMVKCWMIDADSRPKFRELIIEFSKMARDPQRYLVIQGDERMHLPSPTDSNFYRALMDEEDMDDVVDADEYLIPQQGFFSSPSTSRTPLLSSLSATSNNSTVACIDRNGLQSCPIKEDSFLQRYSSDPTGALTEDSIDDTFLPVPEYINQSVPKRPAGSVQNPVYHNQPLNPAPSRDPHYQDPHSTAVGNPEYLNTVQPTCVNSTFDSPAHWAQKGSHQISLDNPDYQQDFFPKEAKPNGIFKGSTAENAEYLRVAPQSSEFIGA
Experiment [13] relates to NIH3T3. The experiment is described as follows: Anti-invasive activity against mouse NIH/3T3 cells transfected with human AdoMetDC cDNA in sense orientation assessed as inhibition of cell invasion at 100 ng/ml incubated for 1 weeks by matrigel-based microscopic analysis relative to control. It counts as functional. As to conditions: NIH3T3, 168 h.
In experiment [14] the test system is NIH3T3. The experiment is described as follows: Anti-invasive activity against mouse NIH/3T3 cells transfected with human AdoMetDC cDNA in antisense orientation assessed as inhibition of cell invasion at 100 ng/ml incubated for 1 weeks by matrigel-based microscopic analysis relative to control. In kind it is functional. As to conditions: NIH3T3, 168 h.
Experiment [15] deals with MDA-MB-231. The experiment can be described thus: Anti-invasive activity against human MDA-MB-231 cells at 30 nM by crystal violet staining based Boyden chamber assay relative to control. In kind it is functional.
Experiment [16] deals with HT-29. The experiment can be described thus: Cytotoxicity against human HT-29 cells incubated for 72 hrs by MTT assay. It counts as functional. As to conditions: HT-29, 72 h.
In experiment [17] the test system is Jurkat. The experiment is described as follows: Cytotoxicity against human Jurkat cells incubated for 72 hrs by MTT assay. In kind it is functional.
Experiment [18] is described as follows: Cytotoxicity against mouse DLA cells incubated for 48 hrs by trypan blue dye based assay. In kind it is functional, cell-based.
Experiment [19] is described as follows: Cytotoxicity against mouse DLA cells incubated for 48 hrs by MTT assay. It counts as functional, cell-based.
A short description of experiment [20]: Cytotoxicity against mouse DLA cells incubated for 48 hrs by LDH release assay. In kind it is functional, cell-based. (In general: LDH in the medium is a marker of cell lysis.)
Experiment [21] has as its system MDA-MB-231. The experiment can be described thus: Cytotoxicity against human MDA-MB-231 cells incubated for 48 hrs by MTT assay. In kind it is functional, cell-based. The conditions noted are these: MDA-MB-231, 48 h.
Experiment [22] deals with Tubulin (Homo sapiens) (UniProt P68371+Q9H4B7+P0DPH7+P68366+Q13509+Q71U36+P04350+Q3ZCM7+P07437+P68363+Q9BQE3+Q6PEY2+Q13885+Q9BVA1+Q9BUF5). The experiment is described as follows: Inhibition of tubulin polymerization (unknown origin) at 3 uM incubated for 1 hr by fluorescence assay relative to control. In kind it is protein-complex assay.
For experiment [23], the target named is Proto-oncogene tyrosine-protein kinase Src (Homo sapiens, UniProt P12931). The experiment can be described thus: Inhibition of SRC (unknown origin) by Z'-LYTE assay.
Chain of Proto-oncogene tyrosine-protein kinase Src (P12931 2-536 limits assumed): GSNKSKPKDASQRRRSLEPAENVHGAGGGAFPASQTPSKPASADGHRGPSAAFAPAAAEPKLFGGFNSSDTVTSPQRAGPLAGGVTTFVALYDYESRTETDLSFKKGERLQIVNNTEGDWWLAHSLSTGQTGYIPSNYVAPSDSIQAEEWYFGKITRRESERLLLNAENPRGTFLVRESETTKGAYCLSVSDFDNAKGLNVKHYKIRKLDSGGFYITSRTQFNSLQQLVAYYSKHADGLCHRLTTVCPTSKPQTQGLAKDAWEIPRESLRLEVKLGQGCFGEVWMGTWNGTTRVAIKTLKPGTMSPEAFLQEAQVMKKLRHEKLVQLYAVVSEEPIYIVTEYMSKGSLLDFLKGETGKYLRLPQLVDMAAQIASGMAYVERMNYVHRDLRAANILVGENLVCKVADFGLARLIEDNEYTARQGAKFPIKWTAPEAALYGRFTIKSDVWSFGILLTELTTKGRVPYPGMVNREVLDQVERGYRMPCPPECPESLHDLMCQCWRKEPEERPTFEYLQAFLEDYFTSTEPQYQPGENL
Experiment [24] concerns L1210. The experiment can be described thus: Growth inhibition of mouse L1210 cells by MTS assay. It counts as functional, cell-based.
Experiment [25] concerns 4T1. The experiment can be described thus: Inhibition of colony formation in mouse 4T1 cells assessed as colony forming units at 1.25 uM incubated for 7 to 10 days by crystal violet staining based microscopic method (reference value: 364 +/- 46.4 No unit). It counts as functional.
Experiment [26] has as its system 4T1. The experiment can be described thus: Inhibition of colony formation in mouse 4T1 cells assessed as assessed as colony forming units at 2.5 uM incubated for 7 to 10 days by crystal violet staining based microscopic method (reference value: 364 +/- 46.4 No unit). It counts as functional.
Experiment [27] has as its system 4T1. The experiment is described as follows: Antitumor activity against mouse 4T1 cells implanted in BALB/c mouse assessed as median number of metastases per lung at 50 mg/kg, ig administered daily post implantation (reference value: 40.5). It counts as functional.
The test system of experiment [28] is 4T1. The experiment can be described thus: Antitumor activity against mouse 4T1 cells implanted in BALB/c mouse assessed as median number of metastases per lung at 100 mg/kg, ig administered daily post implantation (reference value: 40.5). In kind it is functional.
For experiment [29], the system named is B16. The experiment can be described thus: Cytotoxicity against mouse B16 cells incubated for 48 hrs by MTT assay. In kind it is functional, cell-based. The conditions noted are these: B16, 48 h.
The test system of experiment [30] is CT26. The experiment is described as follows: Cytotoxicity against mouse CT26 cells incubated for 48 hrs by MTT assay. It counts as functional, cell-based. The conditions noted are these: CT26, 48 h.
Experiment [31] deals with 4T1. The experiment is described as follows: Cytotoxicity against mouse 4T1 cells incubated for 48 hrs by MTT assay. In kind it is functional, cell-based. As to conditions: 4T1, 48 h.
Experiment [32] deals with Lewis lung carcinoma cell line. The experiment is described as follows: Cytotoxicity against mouse LLC cells incubated for 48 hrs by MTT assay. In kind it is functional, cell-based.
Experiment [33] can be described thus: Cytotoxicity against mouse Meth-A cells incubated for 48 hrs by MTT assay. It counts as functional, cell-based.
Experiment [34] concerns A549. The experiment is described as follows: Cytotoxicity against human A549 cells incubated for 48 hrs by MTT assay. It counts as functional, cell-based. As to conditions: A549, 48 h.
Experiment [35] deals with HeLa. The experiment can be described thus: Cytotoxicity against human HeLa cells incubated for 48 hrs by MTT assay. It counts as functional, cell-based.
Experiment [36] relates to DU-145. The experiment is described as follows: Cytotoxicity against human DU145 cells incubated for 48 hrs by MTT assay. It counts as functional, cell-based. The conditions noted are these: DU-145, 48 h.
The nature of experiment [37]: Cytotoxicity against mouse MM3MG cells incubated for 48 hrs by MTT assay. It counts as functional, cell-based.
Experiment [38] has as its system HK-2. The experiment can be described thus: Cytotoxicity against human HK2 cells incubated for 48 hrs by MTT assay. It counts as cell-based. The conditions noted are these: HK-2, 48 h.
The subject of experiment [39] is L02. The experiment can be described thus: Cytotoxicity against human L02 cells incubated for 48 hrs by MTT assay. In kind it is cell-based. As to conditions: L02, 48 h.

Chain of Hepatocyte growth factor activator serine protease (Q04756 373-407 limits assumed): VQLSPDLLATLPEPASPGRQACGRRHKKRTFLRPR
Chain of Hepatocyte growth factor activator serine protease (Q04756 408-655 limits assumed): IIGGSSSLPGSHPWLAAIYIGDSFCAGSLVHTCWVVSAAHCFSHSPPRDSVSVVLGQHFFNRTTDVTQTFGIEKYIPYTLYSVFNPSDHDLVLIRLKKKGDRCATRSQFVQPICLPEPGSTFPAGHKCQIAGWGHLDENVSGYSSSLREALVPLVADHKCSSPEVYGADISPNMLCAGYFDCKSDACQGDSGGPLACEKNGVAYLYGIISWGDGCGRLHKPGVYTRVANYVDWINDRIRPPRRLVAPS
Chain of Suppressor of tumorigenicity 14 protein (Q9Y5Y6 whole entry): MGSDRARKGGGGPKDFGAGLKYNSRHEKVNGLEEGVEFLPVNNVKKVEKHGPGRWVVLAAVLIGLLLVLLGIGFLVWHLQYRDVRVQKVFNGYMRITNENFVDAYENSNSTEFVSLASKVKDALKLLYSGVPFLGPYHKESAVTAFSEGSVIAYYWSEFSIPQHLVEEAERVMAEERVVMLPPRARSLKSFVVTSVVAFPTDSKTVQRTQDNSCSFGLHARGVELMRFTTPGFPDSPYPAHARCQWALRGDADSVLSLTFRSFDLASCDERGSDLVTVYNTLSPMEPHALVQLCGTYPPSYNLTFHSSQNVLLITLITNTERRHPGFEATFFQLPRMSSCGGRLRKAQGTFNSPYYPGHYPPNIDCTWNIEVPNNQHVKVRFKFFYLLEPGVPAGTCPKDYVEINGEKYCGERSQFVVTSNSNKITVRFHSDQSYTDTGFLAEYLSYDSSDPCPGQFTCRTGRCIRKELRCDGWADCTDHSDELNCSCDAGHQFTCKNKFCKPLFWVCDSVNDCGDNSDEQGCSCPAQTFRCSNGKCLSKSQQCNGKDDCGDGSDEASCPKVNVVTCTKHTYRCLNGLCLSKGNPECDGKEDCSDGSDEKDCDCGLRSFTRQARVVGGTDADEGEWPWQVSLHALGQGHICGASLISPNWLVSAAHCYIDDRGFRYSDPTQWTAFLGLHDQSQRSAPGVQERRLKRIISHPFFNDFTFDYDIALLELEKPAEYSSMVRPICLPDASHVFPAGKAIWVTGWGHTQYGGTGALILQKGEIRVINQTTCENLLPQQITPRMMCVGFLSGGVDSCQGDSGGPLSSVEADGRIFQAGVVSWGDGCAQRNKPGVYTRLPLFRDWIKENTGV
Chain of Serine protease hepsin (P05981 1-162 limits assumed): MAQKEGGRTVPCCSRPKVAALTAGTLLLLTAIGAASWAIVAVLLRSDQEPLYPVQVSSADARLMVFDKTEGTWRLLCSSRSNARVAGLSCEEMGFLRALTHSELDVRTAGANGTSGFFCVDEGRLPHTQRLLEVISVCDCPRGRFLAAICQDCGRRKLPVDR
Chain of Serine protease hepsin (P05981 163-417 limits assumed): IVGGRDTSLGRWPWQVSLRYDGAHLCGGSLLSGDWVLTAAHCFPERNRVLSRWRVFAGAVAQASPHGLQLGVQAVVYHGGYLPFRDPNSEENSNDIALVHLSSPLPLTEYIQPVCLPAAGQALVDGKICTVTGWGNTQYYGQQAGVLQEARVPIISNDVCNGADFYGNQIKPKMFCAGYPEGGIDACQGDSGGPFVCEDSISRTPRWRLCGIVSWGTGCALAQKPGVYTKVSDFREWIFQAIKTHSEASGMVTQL
Chain of Histone deacetylase 1 (Q13547 whole entry, the tested form may be a part): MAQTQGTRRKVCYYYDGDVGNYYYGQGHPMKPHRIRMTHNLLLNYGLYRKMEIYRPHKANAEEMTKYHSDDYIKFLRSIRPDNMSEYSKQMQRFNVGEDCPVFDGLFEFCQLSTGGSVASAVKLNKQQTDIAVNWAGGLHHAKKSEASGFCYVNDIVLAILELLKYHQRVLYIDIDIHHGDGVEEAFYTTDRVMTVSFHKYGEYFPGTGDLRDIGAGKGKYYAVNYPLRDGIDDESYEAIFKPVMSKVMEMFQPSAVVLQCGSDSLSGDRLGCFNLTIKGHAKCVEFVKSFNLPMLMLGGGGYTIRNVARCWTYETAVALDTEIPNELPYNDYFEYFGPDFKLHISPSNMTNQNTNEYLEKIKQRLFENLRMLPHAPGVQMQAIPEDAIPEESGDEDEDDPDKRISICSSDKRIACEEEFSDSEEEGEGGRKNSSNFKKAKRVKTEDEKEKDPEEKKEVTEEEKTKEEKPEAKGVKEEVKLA

As to `Nc1ccn([C@@H]2O[C@H](CO)[C@@H](O)C2(F)F)c(=O)n1` [GEMCITABINE], the IC50 in [1] was 16 nM; in experiment [2], 11000 nM; in [3] it was 40800 nM; in experiment [4], 22 nM.

For the molecule `O=C(CCCOc1ccc(N2C(=O)CSC2c2ccc(Br)s2)cc1)NO` (configuration not stated), the IC50 in experiment [5] was 73 nM.

Take `CC[C@H](NC(C)=O)C(=O)N[C@@H](CCCN)C(=O)N[C@@H](CC(C)C)C(=O)N[C@@H](CCCNC(=N)N)C(=O)c1nc2ccc(C(=O)NC3CCNCC3)cc2s1`: the inhibitory constant (Ki) came to 7.2 nM in experiment [6]; 1.3 nM in [7]; 0.27 nM in [8]; 2950 nM in experiment [9]; 447 nM in [10].

Turning to `CN(C(=S)NN=C(c1ccccn1)c1ccccn1)C1CCCCC1`, the IC50 in [1] came out at 5 nM; in [2], 30 nM; in [3], 20 nM; in experiment [4], 203 nM.

With `Clc1ccc(/C=N\Nc2ccc(-c3nc4ccccc4s3)cc2)cc1`, the half-maximal inhibitory concentration (IC50) in experiment [11] worked out at 27 nM. The same molecule had an inhibition in [12] of 47.3%.

As for `C/C1=C/C(=O)O[C@@H]2C[C@@H](CC[C@H](C)/C=C\C=C\CC1)O[C@@](O)([C@@H]1CSC(=O)N1)C2` [LATRUNCULIN A], the inhibition at 0.1 µg/mL in [13] and in experiment [14] was greater than 95% in each case. Also, in [15], the Activity is less than 50%.

On to `O=C1c2ccccc2C(=O)N1C/C=N\N=c1\scc(-c2cccc([N+](=O)[O-])c2)n1-c1ccccc1`, for which the figures for the CC50 in experiment [16] and in experiment [17] were 21300 nM and 21200 nM, respectively.

Regarding `O=C(CN1CCN(c2nc3ccccc3s2)CC1)NNC(=O)c1ccc(Br)cc1`, the 50% inhibitory concentration (IC50) worked out at 25000 nM in experiment [18], 22600 nM in experiment [19] and 23000 nM in experiment [20].

Molecule `COc1ccc2c(c1)sc1nc(CCC(=O)c3ccc(OC)c(O)c3)cn12` yielded an IC50 in [21] of 1300 nM. Also, in experiment [22], the inhibition turned out to be 59.2%.

With `CC/C(=N\Nc1nc(-c2ccc(OC)cc2)cs1)c1cccc(Br)c1`, the CC50 in experiment [16] was 62000 nM; in experiment [17], 114000 nM.

`COC(=O)Nc1nc2cc(C(=O)c3cccs3)ccc2[nH]1` yielded an inhibition in experiment [22] of 58.3%.

Turning to `C/C(=N\NC1SC=C(c2ccc3ccccc3c2)N1C)c1ccccn1` (configuration not stated), the CC50 in [16] was found to be 57800 nM; in experiment [17], 16200 nM.

In experiment [23], `Cc1nc(Nc2ncc(-c3ccccc3)s2)cc(N2CCN(CCO)CC2)n1` had an IC50 of 97 nM.

For the molecule `NC(=S)N/N=C/c1ncccc1N` [TRIAPINE], the IC50 in experiment [24] was determined as 1300 nM.

As to `CC(=O)N[C@@H](CCCCN)C(=O)N[C@@H](CCCNC(=N)N)C(=O)N[C@@H](CC(C)C)C(=O)N[C@@H](CCCNC(=N)N)C(=O)c1nc2ccc(C(=O)NCc3ccc(C(=O)O)cc3)cc2s1`, the Ki in experiment [6] is 3.7 nM; in experiment [7], 2.5 nM; in experiment [8], 0.67 nM; in [10], 29 nM.

Consider `COc1ccc(C(=O)CCc2cn3c(n2)sc2ccccc23)cc1`, for which the 50% inhibitory concentration (IC50) in [21] was 1200 nM. In experiment [22], this molecule registered an inhibition of 61.4%.

With `O=c1[nH]cc(F)c(=O)[nH]1` [FLUOROURACIL], the IC50 is 24300 nM in experiment [1], 62300 nM in experiment [2], 54200 nM in [3] and 41200 nM in experiment [4].

Take `COc1ccccc1C(=O)Nc1ccc2nc(SCC(=O)NCc3ccc(Cl)cc3)sc2c1`: the Activity in [25] is given as 189 CFU; in [26], 56 CFU; in experiment [27] it was 19.5; in experiment [28], 6. The IC50 in experiment [29] worked out at 5600 nM; in experiment [30], 4300 nM; in experiment [31], 1200 nM; in [32], 6500 nM; in [33] it was 12300 nM; in [34], 2400 nM. Moreover, the IC50 in experiment [35] was 4300 nM; in [36], 1900 nM; in experiment [37], greater than 40000 nM; in [38], greater than 40000 nM; in [39], greater than 40000 nM.

Regarding `CN(C)C(=S)NN=C(c1ccccn1)c1ccccn1`, the IC50 in experiment [1] worked out at 1 nM; in experiment [2] it was 4 nM; in experiment [3], 1 nM; in [4], 200 nM.
